In patent US20250114367A1, “METHOD OF TREATING HAIR LOSS DISORDERS” (Sun Pharmaceutical Industries, Inc., priority 2023, published 2025):
Read-outs that look alike come from different tables or passages of the source.

Key:
[1] = Renal impairment study: PK after a single 12 mg oral dose of CTP-543; format: in vivo, human; conditions: for Tmax / AUC(0-t) / AUC(0-inf) / Cmax / Vd/F / half-life: human, plasma, po, 12 mg; for Tmax / AUC(0-t) / AUC(0-inf) / Cmax / Vd/F / half-life / CL/F (geometric mean) / Clast (geometric mean): single 12 mg oral dose of CTP-543, outlier excluded; for AUC(0-t): read-out: AUC0-Tlast (geometric mean); for AUC(0-inf): read-out: AUC0-inf (geometric mean); for Cmax: read-out: Cmax (geometric mean); for Vd/F: read-out: Vz/F (geometric mean); for half-life: read-out: terminal elimination half-life (geometric mean) (converted)
Excerpt: The study enrolled 8 subjects in the normal renal function cohort, and 8 subjects in the moderate impaired renal function cohort.
The primary endpoint of this study was single dose PK exposure parameters: Cmax, AUC(0-Tlast), and AUC(0-∞).
The secondary endpoints of this study were: • Adverse Events, clinical laboratory findings, physical examinations, ECGs, and vital signs. • Other PK parameters, such as, but not limited to: Tmax, λz, t1/2, CL/F, and Vz/F.
All subjects had samples collected for PK.
PK parameters were determined using non-compartmental analysis (NCA) methods based on individual plasma concentration-time data for all PK analytes.

[2] = test system: subjects with AA; assay: Open-label extension (OLE) studies: safety
Procedure: Two separate OLE trials were conducted in North America (CP543.5001) and the European Union (CP543.5002). […] Both OLE trials were similarly designed, except: Trial CP543.5001 (North America) participants have the opportunity to continue in the trial for a maximum of 276 weeks; and Trial CP543.5002 (European Union) participants have the opportunity to continue in the trial for a maximum of 108 weeks.
Subjects receiving any active dose of deuruxolitinib in the qualifying trials were initially assigned to receive either 8 mg BID or 12 mg BID in the OLE trial. Subjects receiving placebo in the qualifying trial were assigned to either deuruxolitinib 8 mg BID or 12 mg BID. Subjects were allowed to switch doses during the OLE after initial treatment assignment at the discretion of the Principal Investigator.

[3] = test system: adult subjects with moderate to severe AA; assay: Phase III trial: Brigham Eyebrow Tool for Alopecia (BETA); format: in vivo, human
Procedure: The BETA is a clinician-rated scale developed by dermatologists at Brigham and Women's Hospital that assesses the total eyebrow hair present (Tkachenko, E, et al., Brigham Eyebrow Tool for Alopecia: A Reliable Assessment of Eyebrow Alopecia Areata, Journal of Investigative Dermatology Symposium Proceedings (2020) 20, S41-S44). The BETA is calculated based on hair density (range 0 to 3) and surface area of each individual eyebrow. The BETA score is the sum of the right and left eyebrow scores (range 0 (absent) to 6). An expert panel of certified raters at Brigham and Women's Hospital performed central readings based on photographs of the eyebrows provided by the study sites and determined a score for each subject with eyebrow involvement following each visit where an assessment of eyebrow hair presence was assessed. The BETA was performed at baseline, Week 12, and Week 24. If a subject was unable to attend an in-person clinic visit due to COVID-19, the BETA may not have been performed due to the inability to take photographs of the eyebrows.
(§1) A Phase III trial was conducted to assess the efficacy and safety of CTP-543 in adult subjects with moderate to severe AA. Approximately 440 adult male and female subjects 18 to 65 years of age, inclusive, with moderate to severe AA participated in the study. Subjects with definitive diagnosis of AA, and at least 50% hair loss, as defined by a SALT score ≥50, who met all of the inclusion criteria and none of the exclusion criteria participated in the study.
(§2) The Screening Period lasted up to 28 days prior to initiation of study drug. […] Randomization was stratified by scalp hair loss into 1 of the following 2 categories: 1) partial scalp hair loss (SALT ≥50 and <95), 2) complete or near complete scalp hair loss (SALT ≥95). […]

[4] = test system: adult subjects with moderate to severe AA; assay: Phase III trial: Brigham Eyelash Tool for Alopecia (BELA); format: in vivo, human
Procedure: The BELA is a clinician-rated scale developed by dermatologists at Brigham and Women's Hospital that assesses the total eyelash hair present Manjaly, P. et al., Development and validation of the Brigham Eyelash Tool for Alopecia (BELA): A measure of eyelash alopecia areata, J Am Acad Dermatol (2021) 1-2. The BELA is calculated based on grade values (range 0 to 3) and distribution. The BELA score is the sum of the individual scores for the left and right eyes (range 0 (absent) to 6). The same expert panel of certified raters at Brigham and Women's Hospital who performed the BETA assessment also performed central readings based on photographs of the eyelashes and determined a score for each subject with eyelash involvement following each visit where an assessment of eyelash hair presence was assessed. The BELA was performed at baseline, Week 12, and Week 24. If a subject was unable to attend an in-person clinic visit due to COVID-19, the BELA may not have been performed due to the inability to take photographs of the eyelashes.
as §1, §2

[5] = compared to healthy control subjects
[6] = moderate renal impairment N = 7

SMILES: [2H]C1([2H])C([C@@H](CC#N)n2cc(-c3ncnc4[nH]ccc34)cn2)C([2H])([2H])C([2H])([2H])C1([2H])[2H] [CTP-543, (R)-3-(4-(7H-pyrrolo[2,3-d]pyrimidin-4-yl)-1H-pyrazol-1-yl)-3-(cyclopentyl-2,2,3,3,4,4,5,5-d8) propanenitrile]
- effect of moderate renal impairment on Cmax [1, 5]: without altering Cmax
- increase of plasma AUC by moderate renal impairment [1, 5]: approximately 24%
- Tmax [1, 6]: 0.5 h
- AUC(0-t) [1, 6]: 1040 ng·h/mL
- AUC(0-inf) [1, 6]: 1050 ng·h/mL
- Cmax [1, 6]: 207 ng/mL
- Vd/F [1, 6]: 72.1 L
- half-life [1, 6]: 4.36 h
- Tmax ([1]; normal renal function N = 8): 0.71 h
- AUC(0-t) ([1]; normal renal function N = 8): 836 ng·h/mL
- AUC(0-inf) ([1]; normal renal function N = 8): 843 ng·h/mL
- Cmax ([1]; normal renal function N = 8): 199 ng/mL
- Vd/F ([1]; normal renal function N = 8): 85.6 L
- half-life ([1]; normal renal function N = 8): 4.17 h
- CL/F (geometric mean) [1, 6]: 11.3 L/h
- Clast (geometric mean) [1, 6]: 0.977 ng/mL
- CL/F (geometric mean) ([1]; normal renal function N = 8): 14.2 L/h
- Clast (geometric mean) ([1]; normal renal function N = 8): 0.698 ng/mL
- most common adverse events [2]: COVID-19, acne, nasopharyngitis, headache, asymptomatic COVID-19, creatinine phosphokinase increase, and upper respiratory tract infection
- BETA score, LS mean change from baseline ([3]; Week 12, 8 mg BID): 0.8
- BETA score, LS mean change from baseline ([3]; Week 12, 12 mg BID): 0.8
- BETA score, LS mean change from baseline ([3]; Week 24, 8 mg BID): 1.1
- BETA score, LS mean change from baseline ([3]; Week 24, 12 mg BID): 1.4
- BELA score, LS mean change from baseline ([4]; Week 12, 8 mg BID): 0.9
- BELA score, LS mean change from baseline ([4]; Week 12, 12 mg BID): 1.0
- BELA score, LS mean change from baseline ([4]; Week 24, 8 mg BID): 1.4
- BELA score, LS mean change from baseline ([4]; Week 24, 12 mg BID): 1.5
